Source: BindingDB's records for doi:10.1074/jbc.M110.107094 (Sanford-Burnham Medical Research Institute, 2010)

Tests used:
Assay in all cases: Inhibition Assay
Details in all cases: 37 °C
[1] = biological target: Matrix metalloproteinase-9 (Homo sapiens, UniProt P14780)
Description: (§1) Inhibition of IC50 using matrix metalloproteinase.

[2] = biological target: 72 kDa type IV collagenase (Homo sapiens, UniProt P08253)
Description: as §1

[3] = biological target: T1, Matrix metalloproteinase-25 (Homo sapiens, UniProt Q9NPA2)
T1 sequence (Q9NPA2 whole entry): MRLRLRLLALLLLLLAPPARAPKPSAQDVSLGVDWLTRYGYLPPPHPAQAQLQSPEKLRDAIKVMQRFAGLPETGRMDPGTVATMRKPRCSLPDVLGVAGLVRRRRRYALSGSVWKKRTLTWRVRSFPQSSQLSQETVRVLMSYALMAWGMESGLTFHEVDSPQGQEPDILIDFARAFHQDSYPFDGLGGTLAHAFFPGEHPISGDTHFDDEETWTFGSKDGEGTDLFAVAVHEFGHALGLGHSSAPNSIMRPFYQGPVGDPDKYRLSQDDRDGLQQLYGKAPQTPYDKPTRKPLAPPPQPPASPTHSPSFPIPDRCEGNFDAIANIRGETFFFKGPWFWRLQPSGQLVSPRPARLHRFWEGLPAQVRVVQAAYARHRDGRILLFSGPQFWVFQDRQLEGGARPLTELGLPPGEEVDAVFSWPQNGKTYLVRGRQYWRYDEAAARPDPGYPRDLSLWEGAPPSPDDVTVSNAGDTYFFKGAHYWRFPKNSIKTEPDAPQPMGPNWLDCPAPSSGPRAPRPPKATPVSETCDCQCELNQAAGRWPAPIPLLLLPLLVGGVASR
Description: as §1

[4] = biological target: T2, Matrix metalloproteinase-14 [1-20,P8S] (Homo sapiens, UniProt P50281, P8S)
T2 construct: 1-20
Description: as §1

Chain of 72 kDa type IV collagenase (P08253 whole entry): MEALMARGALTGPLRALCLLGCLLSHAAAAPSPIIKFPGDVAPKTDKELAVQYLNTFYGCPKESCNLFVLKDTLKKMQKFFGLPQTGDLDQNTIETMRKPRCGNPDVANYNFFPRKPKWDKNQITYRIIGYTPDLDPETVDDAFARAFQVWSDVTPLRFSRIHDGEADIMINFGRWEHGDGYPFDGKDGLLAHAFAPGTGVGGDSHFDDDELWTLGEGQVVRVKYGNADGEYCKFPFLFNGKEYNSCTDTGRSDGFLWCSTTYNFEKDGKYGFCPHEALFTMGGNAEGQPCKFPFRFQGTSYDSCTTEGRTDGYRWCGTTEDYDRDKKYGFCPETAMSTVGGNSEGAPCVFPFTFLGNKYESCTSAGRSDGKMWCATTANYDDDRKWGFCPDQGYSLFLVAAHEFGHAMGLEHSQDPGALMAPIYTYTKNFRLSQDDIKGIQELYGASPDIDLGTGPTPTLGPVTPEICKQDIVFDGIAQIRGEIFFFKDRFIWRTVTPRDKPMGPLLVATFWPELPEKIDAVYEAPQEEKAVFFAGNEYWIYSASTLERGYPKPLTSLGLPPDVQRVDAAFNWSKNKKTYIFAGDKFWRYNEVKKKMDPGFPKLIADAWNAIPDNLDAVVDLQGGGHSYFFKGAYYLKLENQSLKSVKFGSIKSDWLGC
Chain of Matrix metalloproteinase-9 (P14780 whole entry): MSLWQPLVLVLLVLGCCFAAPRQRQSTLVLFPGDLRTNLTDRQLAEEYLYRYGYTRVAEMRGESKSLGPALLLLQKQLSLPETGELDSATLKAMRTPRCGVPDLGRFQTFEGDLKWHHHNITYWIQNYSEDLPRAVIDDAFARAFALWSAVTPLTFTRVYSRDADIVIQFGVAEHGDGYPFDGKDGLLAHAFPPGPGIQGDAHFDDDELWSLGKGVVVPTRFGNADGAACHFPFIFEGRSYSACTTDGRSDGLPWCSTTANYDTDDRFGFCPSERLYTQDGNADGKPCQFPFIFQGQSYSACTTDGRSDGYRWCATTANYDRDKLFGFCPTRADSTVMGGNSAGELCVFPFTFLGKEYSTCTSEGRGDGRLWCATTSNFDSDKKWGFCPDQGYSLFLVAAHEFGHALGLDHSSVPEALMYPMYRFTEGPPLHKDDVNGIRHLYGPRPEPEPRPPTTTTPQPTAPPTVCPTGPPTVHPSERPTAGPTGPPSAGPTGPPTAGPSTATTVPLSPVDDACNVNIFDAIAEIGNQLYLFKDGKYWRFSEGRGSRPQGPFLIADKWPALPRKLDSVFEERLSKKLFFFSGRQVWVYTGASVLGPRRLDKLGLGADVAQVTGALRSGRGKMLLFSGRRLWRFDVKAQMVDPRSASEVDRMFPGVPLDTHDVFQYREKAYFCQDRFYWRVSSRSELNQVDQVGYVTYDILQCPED

IC50 [1] | IC50 [2] | IC50 [3] | IC50 [4] | SMILES
> 50 µM | 1.9 µM | 0.9 µM | 10.9 µM | O=C(CCS(=O)(=O)c1ccccc1)NO [BI-92G11]
> 100 µM | > 100 µM | 2.5 µM | > 100 µM | CCOc1ccc(-c2ccccc2C(=O)NO)cc1 [BI-102C8]
